Key:
heart rate = experiment: Cardiovascular studies: effect on the heart rate in the anesthetized dog; format: in vivo
In short: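 Anesthetized dogs, mostly spontaneously breathing, some open-chest, given rapid intravenous injections. Heart rate by electrocardiograph with blood pressure recorded simultaneously, every 0.5-1 minute for 10 minutes then every 2-5 minutes until recovery; several doses or compounds sometimes tested alternately in one dog.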

[1] = Solubility and pH of salts; conditions: dimethyl sulfoxide, organic solvent or mixture
diastolic blood pressure = experiment: Effect on diastolic blood pressure in the anesthetized dog; format: in vivo
Protocol: The effect of a rapid intravenous injection on the heart rate the heart rate was conducted in anesthetized dogs under normal respiration. A few open-chest dogs were also tested. Increase in heart rate was measured by using an electrocardiograph attached to the dog. Readings were taken every 0.5-1 minute for the first 10 minutes and every 2-5 minutes thereafter until recovery. In some cases, several doses and more than one compound were tested alternately in the same dog. The blood pressure effect was simultaneously recorded.

[2] = system: carbachol- or histamine-induced bronchoconstriction; experiment: Bronchodilator Test Method I, anesthetized dog, intraduodenal activity; format: in vivo; conditions: Canis lupus familiaris, read-out: Bronchodilation; for inhibition in vivo at 0.07 mg/kg: 70 mcg/kg (salt) intraduodenal; for inhibition in vivo at 0.14 mg/kg: 140 mcg/kg (salt) intraduodenal; for inhibition in vivo at 0.28 mg/kg: 280 mcg/kg (salt) intraduodenal
In short: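 Pentobarbital-anesthetized (30 mg/kg i.v.) open-chest dogs of 9-18 kg, artificially ventilated; airway pressure recorded via tracheal cannula transducer. Test solution injected intraduodenally; from 5 min, i.v. carbachol (4-6 μg/kg) or histamine diphosphate (35-45 μg/kg) challenges every 30-60 min gauged degree and duration of bronchodilation.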

[3] = system: carbachol- or histamine-induced bronchoconstriction; experiment: Bronchodilator Test Method I, anesthetized dog, intravenous activity; format: in vivo; conditions: Canis lupus familiaris, read-out: Bronchodilatation; for inhibition in vivo at 0.07 mg/kg: 70 mcg/kg i.v.; for inhibition in vivo at 0.14 mg/kg: 140 mcg/kg i.v.; for inhibition in vivo at 0.28 mg/kg: 280 mcg/kg i.v.
In short: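 Pentobarbital-anesthetized (30 mg/kg i.v.), open-chest, artificially ventilated dogs were given i.v. carbachol (4-6 µg/kg) or histamine diphosphate (35-45 µg/kg). Test compound was given i.v. mixed with, after, or 1-10 min before the constrictor.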

[4] = system: guinea pig bronchioles constricted by carbachol; experiment: Bronchodilator Test Method II, in vitro perfused guinea pig lung
Protocol: In this method bronchodilator activity in vitro was determined by testing the effect of graded doses of the test compounds on guinea pig bronchioles constricted by carbachol, using the technique reported by Sollman and von Oettingen, Proc. Soc, Exp. Biol. Med., 25,692 (1928) as modified by Tainter, Pedden, and James, J. Pharm. Exp. Ther., 51, 371 (1934) and by Luduena, von Euler, Tullar, and Lands, Arch. intern. Pharmacol., III, 392 (1957).

Cc1ccc(C(=O)Oc2ccc(C(O)CNC(C)(C)C)cc2OC(=O)c2ccc(C)cc2)cc1 (stereo not drawn) [Example 30, 3,4-bis(p-toluyloxy)-alpha-(tert-butylaminomethyl)benzyl alcohol methanesulfonate]
Mean Maximal Increase in the Heart Rate (heart rate; 70 mcg/kg (salt) i.v.): 9%
Mean Maximal Increase in the Heart Rate (heart rate; 140 mcg/kg (salt) i.v.): 15%
Mean Maximal Increase in the Heart Rate (heart rate; 280 mcg/kg (salt) i.v.): 28%
solubility [1]: ≥ 10000 µg/mL
Mean Decrease in Diastolic Blood Pressure (diastolic blood pressure; 70 meg/kg (salt) i.v.): 2%
Mean Decrease in Diastolic Blood Pressure (diastolic blood pressure; 140 meg/kg (salt) i.v.): 11%
Mean Decrease in Diastolic Blood Pressure (diastolic blood pressure; 280 meg/kg (salt) i.v.): 11.5%
inhibition in vivo at 0.07 mg/kg ([2]; 10 min, 10 min, mean of 3 dogs): 38%
inhibition in vivo at 0.14 mg/kg ([2]; 10 min, 10 min): 30%
inhibition in vivo at 0.28 mg/kg ([2]; 10 min, 10 min): 75%
inhibition in vivo at 0.07 mg/kg ([2]; 0.5 h, 30 min): 45%
inhibition in vivo at 0.14 mg/kg ([2]; 0.5 h, 30 min): 35%
inhibition in vivo at 0.28 mg/kg ([2]; 0.5 h, 30 min): 71%
inhibition in vivo at 0.07 mg/kg ([2]; 1 h, 60 min): 42%
inhibition in vivo at 0.14 mg/kg ([2]; 1 h, 60 min): 36%
inhibition in vivo at 0.28 mg/kg ([2]; 1 h, 60 min, mean of 3 dogs): 64%
inhibition in vivo at 0.07 mg/kg ([2]; 2 h, 120 min, mean of 3 dogs): 42%
inhibition in vivo at 0.14 mg/kg ([2]; 2 h, 120 min): 45%
inhibition in vivo at 0.28 mg/kg ([2]; 2 h, 120 min): 56%
inhibition in vivo at 0.07 mg/kg ([2]; 3 h, 180 min): 42%
inhibition in vivo at 0.14 mg/kg ([2]; 3 h, 180 min): 40%
inhibition in vivo at 0.28 mg/kg ([2]; 3 h, 180 min): 50%
inhibition in vivo at 0.07 mg/kg ([2]; 4 h, 240 min, mean of 3 dogs): 25%
inhibition in vivo at 0.14 mg/kg ([2]; 4 h, 240 min): 47%
inhibition in vivo at 0.28 mg/kg ([2]; 4 h, 240 min, mean of 3 dogs): 45%
inhibition in vivo at 0.28 mg/kg ([2]; 5 h, 300 min, mean of 3 dogs): 37%
inhibition in vivo at 0.07 mg/kg ([3]; 5 min, 5 min): 54%
inhibition in vivo at 0.14 mg/kg ([3]; 5 min, 5 min): 65%
inhibition in vivo at 0.28 mg/kg ([3]; 5 min, 5 min): 83%
inhibition in vivo at 0.07 mg/kg ([3]; 0.5 h, 30 min): 63%
inhibition in vivo at 0.14 mg/kg ([3]; 0.5 h, 30 min): 76%
inhibition in vivo at 0.28 mg/kg ([3]; 0.5 h, 30 min): 88%
inhibition in vivo at 0.07 mg/kg ([3]; 1 h, 60 min): 61%
inhibition in vivo at 0.14 mg/kg ([3]; 1 h, 60 min): 69%
inhibition in vivo at 0.28 mg/kg ([3]; 1 h, 60 min): 75%
inhibition in vivo at 0.07 mg/kg ([3]; 2 h, 120 min): 52%
inhibition in vivo at 0.14 mg/kg ([3]; 2 h, 120 min): 55%
inhibition in vivo at 0.28 mg/kg ([3]; 2 h, 120 min): 72%
inhibition in vivo at 0.14 mg/kg ([3]; 3 h, 180 min): 62%
inhibition in vivo at 0.28 mg/kg ([3]; 3 h, 180 min): 64%
inhibition in vivo at 0.07 mg/kg ([3]; 4 h, 240 min): 37%
inhibition in vivo at 0.28 mg/kg ([3]; 4 h, 240 min): 50%
inhibition in vivo at 0.14 mg/kg ([3]; 4.5 h, 270 min): 42%
ED50 ([4]; carbachol (Doryl) 1:5 million): 3.2 µg (base)
Duration, Mean ([4]; dose 10 mcg (base)): 60 ± 9.6 min

Source: patent publication USRE30241E, “Esters of 3-(hydroxy or hydroxymethyl)-4-hydroxyphenyl aminomethyl ketones” (Sterling Drug Inc., priority 1970, dated 1980)
